Experimental findings from patent publication USRE39862E1, “Unsaturated 14, 15-cyclopropanoandrostanes, a method for their production and pharmaceutical compositions containing these compounds” (Schering AG, priority 2000, dated 2007) are described below.

Experiment [1] addresses T1, androgen receptor of the rat prostate (Rattus norvegicus, UniProt P15207).
T1 construct: to the androgen receptor of the rat prostate; from tissue; host or cells: rat prostate
T1 sequence (P15207 1-902): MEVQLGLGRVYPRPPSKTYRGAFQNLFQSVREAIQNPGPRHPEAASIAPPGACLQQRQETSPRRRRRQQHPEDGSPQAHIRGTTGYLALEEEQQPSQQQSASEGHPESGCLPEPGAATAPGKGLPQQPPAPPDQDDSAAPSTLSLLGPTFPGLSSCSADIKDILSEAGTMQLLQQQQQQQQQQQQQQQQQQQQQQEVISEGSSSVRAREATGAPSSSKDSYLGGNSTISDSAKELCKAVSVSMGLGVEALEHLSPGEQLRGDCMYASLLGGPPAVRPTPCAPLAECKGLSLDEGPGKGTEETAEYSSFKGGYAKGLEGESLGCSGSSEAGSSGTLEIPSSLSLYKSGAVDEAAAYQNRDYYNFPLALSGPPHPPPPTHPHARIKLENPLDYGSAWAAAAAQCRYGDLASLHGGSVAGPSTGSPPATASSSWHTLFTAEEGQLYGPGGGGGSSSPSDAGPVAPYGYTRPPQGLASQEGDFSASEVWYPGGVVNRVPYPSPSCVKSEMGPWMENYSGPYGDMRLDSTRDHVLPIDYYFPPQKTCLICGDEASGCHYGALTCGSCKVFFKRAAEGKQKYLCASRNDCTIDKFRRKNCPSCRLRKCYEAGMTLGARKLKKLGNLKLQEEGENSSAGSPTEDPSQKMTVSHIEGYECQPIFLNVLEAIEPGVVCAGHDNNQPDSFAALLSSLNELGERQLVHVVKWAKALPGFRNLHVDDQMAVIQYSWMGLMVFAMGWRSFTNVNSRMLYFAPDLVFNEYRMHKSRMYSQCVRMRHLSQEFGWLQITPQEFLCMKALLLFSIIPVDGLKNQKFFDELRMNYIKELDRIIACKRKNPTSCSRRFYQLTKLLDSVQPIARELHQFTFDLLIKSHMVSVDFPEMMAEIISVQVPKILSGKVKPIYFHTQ
Briefly: binding to the androgen receptor of the rat prostate (reference substance R 1881). As to conditions: reference substance 17β-hydroxy-17α-methyl-estra-4,9,11-triene-3-one (R 1881). The source says: The 4-chloro-17β-hydroxy-14α,15α-methylene-androst-4-ene-3-one binds to the extent of 42%±3% to the androgen receptor of the rat prostate (reference substance. 17β-hydroxy-17α-methyl-estra-4,9,11-triene-3-one; R 1881).

The target of experiment [2] is T2, progesterone receptor of the rabbit uterus (Oryctolagus cuniculus, UniProt P06186).
T2 construct: from tissue; host or cells: rabbit uterus
T2 sequence (P06186 1-930): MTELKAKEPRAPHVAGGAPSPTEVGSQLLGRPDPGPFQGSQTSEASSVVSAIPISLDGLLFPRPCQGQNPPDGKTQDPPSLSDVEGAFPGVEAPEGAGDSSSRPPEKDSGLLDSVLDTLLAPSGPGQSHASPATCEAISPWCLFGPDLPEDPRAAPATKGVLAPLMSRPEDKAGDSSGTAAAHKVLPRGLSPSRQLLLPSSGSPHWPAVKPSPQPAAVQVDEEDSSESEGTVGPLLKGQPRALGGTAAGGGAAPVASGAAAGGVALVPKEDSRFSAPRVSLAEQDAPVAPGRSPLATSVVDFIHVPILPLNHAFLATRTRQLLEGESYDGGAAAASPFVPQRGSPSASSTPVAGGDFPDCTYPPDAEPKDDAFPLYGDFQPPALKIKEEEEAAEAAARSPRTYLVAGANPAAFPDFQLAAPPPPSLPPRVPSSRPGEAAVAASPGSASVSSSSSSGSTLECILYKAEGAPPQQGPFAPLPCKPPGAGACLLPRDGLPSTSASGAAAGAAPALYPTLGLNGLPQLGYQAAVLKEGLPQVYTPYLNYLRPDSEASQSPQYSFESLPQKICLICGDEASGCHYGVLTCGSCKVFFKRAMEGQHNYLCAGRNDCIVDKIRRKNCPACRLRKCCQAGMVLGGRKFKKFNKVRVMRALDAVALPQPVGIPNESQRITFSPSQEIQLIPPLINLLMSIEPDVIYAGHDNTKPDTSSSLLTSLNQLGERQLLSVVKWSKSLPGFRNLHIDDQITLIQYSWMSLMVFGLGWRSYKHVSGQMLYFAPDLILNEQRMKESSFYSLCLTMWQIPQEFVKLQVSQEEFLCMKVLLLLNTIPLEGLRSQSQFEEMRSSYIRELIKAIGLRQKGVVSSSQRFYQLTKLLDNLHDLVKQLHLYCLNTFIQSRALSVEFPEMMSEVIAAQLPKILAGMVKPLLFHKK
The experiment can be described thus: binding to the progesterone receptor of the rabbit uterus (reference substance progesterone).

A short description of another experiment: Hershberger test. The note with it: in vivo.
Experiment [3] can be described thus: pregnancy maintenance test. As to conditions: in vivo.

In the case of `C[C@]12CCC(=O)C(Cl)=C1CC[C@@H]1[C@@H]2CC[C@]2(C)[C@@H](O)C[C@@H]3C[C@]312` [Example 3, 4-Chloro-17β-hydroxy-14α,15α-methylene-androst-4-ene-3-one], in experiment [1], the “binds to the extent of ... to the androgen receptor” value is listed as 42%±3%. The “binding to the progesterone receptor” value in experiment [2] was “practically no binding”. In “Hershberger test”, the “androgenic activity in the Hershberger test” value was “distinct androgenic activity”. The “gestagenic activity in the pregnancy maintenance test” value in experiment [3] is reported as “hardly any gestagenic activity”.
